Laboratory results taken from patent US7595401B2, “Therapeutic compounds and their use in cancer” (Myriad Pharmaceuticals, Inc., priority 2006, dated 2009).

Tested on: purified human Hsp90
Experiment: Binding Assay: fluorescence polarization with BODIPY-labeled geldanamycin
Settings: 5 μM compound, BODIPY-GM 10 nM, Hsp90 30 nM
Procedure, shortened: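 Fluorescence polarization competition with BODIPY-geldanamycin (10 nM final) and human Hsp90 (30 nM final) in HEPES-KOH pH 7.3 buffer with molybdate, NP-40, DTT; 2% DMSO, overnight at room temperature. Read 485/530 nm; percent inhibition from mP normalized to DMSO controls, fluorescent-compound points excluded.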

| Structure (SMILES) | % Inhibition at 5 μM Compound Concentration |
| --- | --- |
| COc1ccc(OC)c(Sc2nc3c(N)ncnc3n2CC(c2ccccc2)C2CCCCC2)c1 (stereo not shown) [Example 179, 9-(2-Cyclohexyl-2-phenyl-ethyl)-8-(2,5-dimethoxy-phenylsulfanyl)-9H-purin-6-ylamine] | 8% |
| COc1ccc(OC)c(Sc2nc3c(N)ncn(CC(c4ccccc4)C4CCCCC4)c-3n2)c1 (stereo not shown) [Example 180, 3-(2-cyclohexyl-2-phenyl-ethyl)-8-(2,5-dimethoxy-phenylsulfanyl)-3H-purin-6-ylamine] | >10% |
| COc1ccc(OC)c(Sc2nc3c(N)ncnc3n2CCc2ccccc2C(F)(F)F)c1 [Example 183, 8-(2,5-Dimethoxy-phenylsulfanyl)-9-[2-(2-trifluoromethyl-phenyl)-ethyl]-9H-purin-6-ylamine] | 100% |
| CCOc1ccc(OCC)c(Sc2nc3c(N)ncn(CCc4ccccc4Cl)c-3n2)c1 [Example 192, 3-[2-(2-chloro-phenyl)-ethyl]-8-(2,5-diethoxy-phenylsulfanyl)-3H-purin-6-ylamine] | 0% |
| COc1cc(CCn2c(Sc3cc(OC)ccc3OC)nc3c(N)ncnc32)cc(OC)c1 [Example 193, 9-[2-(3,5-dimethoxy-phenyl)-ethyl]-8-(2,5-dimethoxy-phenylsulfanyl)-9H-purin-6-ylamine] | 39% |
| COc1cc(CCn2c(Sc3cc4c(cc3Br)OCO4)nc3c(N)ncnc32)cc(OC)c1 [Example 195, 8-(6-Bromo-benzo[1,3]dioxol-5-ylsulfanyl)-9-[2-(3,5-dimethoxy-phenyl)-ethyl]-9H-purin-6-ylamine] | 80% |
| COc1ccc(OC)c(Sc2nc3c(N)ncnc3n2CCc2ccccc2[N+](=O)[O-])c1 [Example 205, 8-(2,5-Dimethoxy-phenylsulfanyl)-9-[2-(2-nitro-phenyl)-ethyl]-9H-purin-6-ylamine] | 80% |

More lines, now with the values ahead:

| % Inhibition at 5 μM Compound Concentration | Structure (SMILES) |
| --- | --- |
| >10% | COc1ccc(OC)c(Sc2nc3c(N)ncn(CCc4ccc(-c5ccccc5)cc4)c-3n2)c1 [Example 182, 3-(2-biphenyl-4-yl-ethyl)-8-(2,5-dimethoxy-phenylsulfanyl)-3H-purin-6-ylamine] |
| 0% | COc1ccc(OC)c(Sc2nc3c(N)ncn(CCc4ccccc4C(F)(F)F)c-3n2)c1 [Example 184, 8-(2,5-dimethoxy-phenylsulfanyl)-3-[2-(2-trifluoromethyl-phenyl)-ethyl]-3H-purin-6-ylamine] |
| 0% | COc1ccc(OC)c(Sc2nc3c(N)ncn(CCc4ccc(N(C)C)cc4)c-3n2)c1 [Example 186, 8-(2,5-dimethoxy-phenylsulfanyl)-3-[2-(4-dimethylamino-phenyl)-ethyl]-3H-purin-6-ylamine] |
| 21% | CN(C)c1ccc(CCn2cnc(N)c3nc(Sc4cc5c(cc4Br)OCO5)nc2-3)cc1 [Example 188, 8-(6-bromo-benzo[1,3]dioxol-5-ylsulfanyl)-3-[2-(4-dimethylamino-phenyl)-ethyl]-3H-purin-6-ylamine] |
| 8% | CCOc1ccc(OCC)c(Sc2nc3c(N)ncn(CCc4ccccc4)c-3n2)c1 [Example 190, 8-(2,5-diethoxy-phenylsulfanyl)-3-phenethyl-3H-purin-6-ylamine] |
| 0% | COc1cc(CCn2cnc(N)c3nc(Sc4cc(OC)ccc4OC)nc2-3)cc(OC)c1 [Example 194, 3-[2-(3,5-dimethoxy-phenyl)-ethyl]-8-(2,5-dimethoxy-phenylsulfanyl)-3H-purin-6-ylamine] |
| 10% | COc1cc(CCn2cnc(N)c3nc(Sc4cc5c(cc4Br)OCO5)nc2-3)cc(OC)c1 [Example 196, 8-(6-Bromo-benzo[1,3]dioxol-5-ylsulfanyl)-3-[2-(3,5-dimethoxy-phenyl)-ethyl]-3H-purin-6-ylamine] |
| 18% | COc1ccc(OC)c(Sc2nc3c(N)ncn(CCc4ccsc4)c-3n2)c1 [Example 198, 8-(2,5-dimethoxy-phenylsulfanyl)-3-(2-thiophen-3-yl-ethyl)-3H-purin-6-ylamine] |
| 18% | COc1ccc(OC)c(Sc2nc3c(N)ncn(CCc4cccs4)c-3n2)c1 [Example 200, 8-(2,5-dimethoxy-phenylsulfanyl)-3-(2-thiophen-2-yl-ethyl)-3H-purin-6-ylamine] |
| 9% | Nc1ncn(CCc2ccsc2)c2nc(Sc3cc4c(cc3Br)OCO4)nc1-2 [Example 202, 8-(6-bromo-benzo[1,3]dioxol-5-ylsulfanyl)-3-(2-thiophen-3-yl-ethyl)-3H-purin-6-ylamine] |
| 11% | Nc1ncn(CCc2cccs2)c2nc(Sc3cc4c(cc3Br)OCO4)nc1-2 [Example 204, 8-(6-bromo-benzo[1,3]dioxol-5-ylsulfanyl)-3-(2-thiophen-2-yl-ethyl)-3H-purin-6-ylamine] |
| 0% | COc1ccc(OC)c(Sc2nc3c(N)ncn(CCc4ccccc4[N+](=O)[O-])c-3n2)c1 [Example 206, 8-(2,5-dimethoxy-phenylsulfanyl)-3-[2-(2-nitro-phenyl)-ethyl]-3H-purin-6-ylamine] |
| 46% | Nc1ncn(CCc2ccccc2[N+](=O)[O-])c2nc(Sc3cc4c(cc3Br)OCO4)nc1-2 [Example 208, 8-(6-bromo-benzo[1,3]dioxol-5-ylsulfanyl)-3-[2-(2-nitro-phenyl)-ethyl]-3H-purin-6-ylamine] |
| 8% | Nc1ncn(CCc2ccccc2)c2nc(Cc3cc4c(cc3Br)OCO4)nc1-2 [Example 210, 8-(6-Bromo-benzo[1,3]dioxol-5-ylmethyl)-3-phenethyl-3H-purin-6-ylamine] |
| 4% | CC(C)(C)OC(=O)Nc1ccc(CCn2cnc(N)c3nc(Sc4cc5c(cc4Br)OCO5)nc2-3)cc1 [Example 212, (4-{2-[6-amino-8-(6-bromo-benzo[1,3]dioxol-5-ylsulfanyl)-purin-3-yl]-ethyl}-phenyl)carbamic acid tert-butyl ester] |

Same assay, conditions: BODIPY-GM 10 nM, Hsp90 30 nM

| Structure (SMILES) | IC50 |
| --- | --- |
| COc1ccc(OC)c(Sc2nc3c(N)ncnc3n2CCc2ccc(-c3ccccc3)cc2)c1 [Example 181, 9-(2-Biphenyl-4-yl-ethyl)-8-(2,5-dimethoxy-phenylsulfanyl)-9H-purin-6-ylamine] | > 25000 nM |
| COc1ccc(OC)c(Sc2nc3c(N)ncnc3n2CCc2ccccc2C(F)(F)F)c1 [Example 183, 8-(2,5-Dimethoxy-phenylsulfanyl)-9-[2-(2-trifluoromethyl-phenyl)-ethyl]-9H-purin-6-ylamine] | 1100 nM |
| COc1ccc(OC)c(Sc2nc3c(N)ncnc3n2CCc2ccc(N(C)C)cc2)c1 [Example 185, 8-(2,5-Dimethoxy-phenylsulfanyl)-9-[2-(4-dimethylamino-phenyl)-ethyl]-9H-purin-6-ylamine] | > 2500 nM |
| CCOc1ccc(OCC)c(Sc2nc3c(N)ncnc3n2CCc2ccccc2)c1 [Example 189, 8-(2,5-Diethoxy-phenylsulfanyl)-9-phenethyl-9H-purin-6-ylamine] | > 8000 nM |
| CCOc1ccc(OCC)c(Sc2nc3c(N)ncnc3n2CCc2ccccc2Cl)c1 [Example 191, 9-[2-(2-Chloro-phenyl)-ethyl]-8-(2,5-diethoxy-phenylsulfanyl)-9H-purin-6-ylamine] | > 8000 nM |
| COc1cc(CCn2c(Sc3cc(OC)ccc3OC)nc3c(N)ncnc32)cc(OC)c1 [Example 193, 9-[2-(3,5-dimethoxy-phenyl)-ethyl]-8-(2,5-dimethoxy-phenylsulfanyl)-9H-purin-6-ylamine] | 310 nM |
| COc1cc(CCn2c(Sc3cc4c(cc3Br)OCO4)nc3c(N)ncnc32)cc(OC)c1 [Example 195, 8-(6-Bromo-benzo[1,3]dioxol-5-ylsulfanyl)-9-[2-(3,5-dimethoxy-phenyl)-ethyl]-9H-purin-6-ylamine] | 79 nM |
| COc1ccc(OC)c(Sc2nc3c(N)ncnc3n2CCc2ccsc2)c1 [Example 197, 8-(2,5-Dimethoxy-phenylsulfanyl)-9-(2-thiophen-3-yl-ethyl)-9H-purin-6-ylamine] | 170 nM |
| COc1ccc(OC)c(Sc2nc3c(N)ncnc3n2CCc2cccs2)c1 [Example 199] | 110 nM |
| Nc1ncnc2c1nc(Sc1cc3c(cc1Br)OCO3)n2CCc1cccs1 [Example 203, 8-(6-Bromo-benzo[1,3]dioxol-5-ylsulfanyl)-9-(2-thiophen-2-yl-ethyl)-9H-purin-6-ylamine] | 90 nM |
| COc1ccc(OC)c(Sc2nc3c(N)ncnc3n2CCc2ccccc2[N+](=O)[O-])c1 [Example 205, 8-(2,5-Dimethoxy-phenylsulfanyl)-9-[2-(2-nitro-phenyl)-ethyl]-9H-purin-6-ylamine] | 240 nM |
| Nc1ncnc2c1nc(Cc1cc3c(cc1Br)OCO3)n2CCc1ccccc1 [Example 209, 8-(6-Bromo-benzo[1,3]dioxol-5-ylmethyl)-9-phenethyl-9H-purin-6-ylamine] | 450 nM |

The next lines start with the values.

| IC50 | Structure (SMILES) |
| --- | --- |
| > 2500 nM | CN(C)c1ccc(CCn2c(Sc3cc4c(cc3Br)OCO4)nc3c(N)ncnc32)cc1 [Example 187, 8-(6-Bromo-benzo[1,3]dioxol-5-ylsulfanyl)-9-[2-(4-dimethylamino-phenyl)-ethyl]-9H-purin-6-ylamine] |
| 72 nM | Nc1ncnc2c1nc(Sc1cc3c(cc1Br)OCO3)n2CCc1ccsc1 [Example 201, 8-(6-Bromo-benzo[1,3]dioxol-5-ylsulfanyl)-9-(2-thiophen-3-yl-ethyl)-9H-purin-6-ylamine] |
| 38 nM | Nc1ncnc2c1nc(Sc1cc3c(cc1Br)OCO3)n2CCc1ccccc1[N+](=O)[O-] [Example 207, 8-(6-Bromo-benzo[1,3]dioxol-5-ylsulfanyl)-9-[2-(2-nitro-phenyl)-ethyl]-9H-purin-6-ylamine] |
| > 25000 nM | Nc1ncn(CCc2ccccc2[N+](=O)[O-])c2nc(Sc3cc4c(cc3Br)OCO4)nc1-2 [Example 208, 8-(6-bromo-benzo[1,3]dioxol-5-ylsulfanyl)-3-[2-(2-nitro-phenyl)-ethyl]-3H-purin-6-ylamine] |
| > 25000 nM | CC(C)(C)OC(=O)Nc1ccc(CCn2c(Sc3cc4c(cc3Br)OCO4)nc3c(N)ncnc32)cc1 [Example 211, (4-{2-[6-Amino-8-(6-bromo-benzo[1,3]dioxol-5-ylsulfanyl)-purin-9-yl]-ethyl}-phenyl)carbamic acid tert-butyl ester] |
| 950 nM | COc1ccc(OC)c(Sc2nc3c(N)ncnc3n2CCc2ccc(NC(=O)OC(C)(C)C)cc2)c1 [Example 214, (4-{2-[6-Amino-8-(2,5-dimethoxy-phenylsulfanyl)-purin-9-yl]-ethyl}-phenyl)-carbamic acid tert-butyl ester] |
